# Measured values reported in patent US20250129370A1, “METHOD FOR REDUCING HEPATIC TRIGLYCERIDES” (ADAERATA, LIMITED PARTNERSHIP, priority 2022, published 2025).
# Test system: PCSK7 mRNA
# Assay: PCSK7 mRNA qPCR after miRNA overexpression in HEK293T cells
# Assay type: cell-based, human
# Conditions: 48 hours after transfection
# Experimental: RNA was isolated from the cells with the TRIzol™ Reagent (Invitrogen, USA) according to the manufacturer's instructions. The RNA samples were treated with RNase-free DNase I (Fermentas, USA) to eliminate any possible DNA contamination. Reverse transcription was performed using the PrimeScript™ First Strand cDNA Synthesis Kit (Takara, Japan) following the manufacturer's protocol. Briefly, one unit of the DNase I enzyme, 1 μL of a buffer, and 1 μg of total RNA were incubated for 30 minutes at 37° C. Then, 1 μL of 50 mM EDTA was added for enzyme inactivation and incubated at 65° C. for 10 minutes. Subsequently, 5 μL of DNase-treated RNA was added to the mix of 0.5 μL of the reverse-transcriptase enzyme, 2 μL of the reverse-transcriptase buffer, and 1 μL of a random hexamer and incubated for 15 minutes at 37° C., followed by 5 seconds at 85° C. for enzyme inactivation. Stem-loop RT-qPCR method was applied for evaluating the expression of miRNAs (Kramer, 2011). […]
# All the reactions were repeated in duplicates. Next, melt curves were analyzed, with the mean threshold cycles used for further analyses. The relative expressions of the miRNAs and PCSK7 to RNU48 small nuclear RNA and/or GAPDH and β2m were calculated, respectively, via the 2-ΔΔCt method. […]
substance,measurement,value
"miR-125a-5p: miRNA targeting PCSK7 3′-UTR and exons 14 and 15, overexpressed from pEGFP-C1 precursor vector (UCCCUGAGACCCUUUAACCUGUGA; miRNA expressed from a pEGFP-C1 precursor vector, further chemistry not given here)",reduction in PCSK7 mRNA levels,~25%
